How the values were obtained:
[1] = system: SOCE in human NPCs; assay: Thapsigargin-induced store release and SOCE Ca2+ imaging in human NPCs; format: cell-based; details: thapsigargin 10 μM store depletion, re-addition of 2 mM Ca2+; pharmacological inhibitors vs DMSO
Procedure: (A, B) Ca^2+-responses during ER-store release and SOCE induced by Thapsigargin (TG, 10 μM) measured using the ratiometric Ca^2+-indicator indo-1-AM in wild-type (WT) hNPCs (A) or hNPCs treated with pharmacological inhibitors of SOCE, BTP-2 and 2-APB at the indicated concentrations or DMSO as a solvent control (B). Each trace represents the mean+SEM for 25-100 cells. Ionomycin (Iono, 10 μM) was added at the end of each imaging to determine the peak F405/485 ratio obtained after saturation of the Ca′-indicator with Ca^2+ (C) Box plots quantifying the peak F405/485 values for store-release and SOCE in the indicated treatment conditions.
(Top) A representative Western blot showing levels of STIM1 protein in hNPCs transduced with an NTC (non-targeting control) or an sh-RNA targeting STIM1 (STIM1 KD). Actin serves as the loading control. […] (E) Ca^2+-responses during store-release and SOCE in hNPCs transduced with NTC and STIM1 KD. (F) Box plots quantifying the peak F405/485 values for store-release and SOCE in the indicated genotypes.

[2] = system: SOCE in NPCs; details: embryonic and adult mouse NSCs/NPCs; cited from earlier work
[3] = system: SVZ cells; details: pharmacological blockade of SOC, in vitro; cited from earlier work
[4] = system: SVZ cells; details: injection in brain lateral ventricle; cited from earlier work

Row | SMILES | effect on SOCE in human NPCs [1] | effect on SOCE in mouse NPCs [2] | effect on proliferation of SVZ cells [3] | effect on SVZ cell proliferation in vivo [4]
1 | Cc1nnsc1C(=O)Nc1ccc(-n2nc(C(F)(F)F)cc2C(F)(F)F)cc1 [BTP-2] | significantly inhibited SOCE | blocked | decreases proliferation | 
2 | [La+3] [La^3+] |  | blocked |  | 
3 | COc1ccc(CCCOC(Cn2ccnc2)c2ccc(OC)cc2)cc1 (centres unmarked) [SKF-96365] |  |  | decreases proliferation | diminishes SVZ cell proliferation
4 | NCCOB(c1ccccc1)c1ccccc1 [2-APB, 2-aminoethoxy-diphenyl borate] | significantly inhibited SOCE | blocked |  | 

Source: patent US11851676B2, “Human neural precursor cells with inducible STIM1 knockdown” (NATIONAL CENTRE FOR BIOLOGICAL SCIENCES, priority 2018, dated 2023)
